Laboratory results: the supplement of paper PMC13380429
Where a name gives a salt, the structure may show the parent alone.

Experiments:
Conditions in all cases: 72 h
Caco-2 [1] = assay: cell viability relative to DMSO; higher = less toxic
Vero E6 [2] = assay: as above
HepG2 [3] = assay: as above
Calu-3 [4] = assay: as above
U2OS [5] = assay: as above
Vero E6 [6] = assay: relative viability EC50 (midpoint between 100% and the lowest measured viability); higher = less toxic
HepG2 [7] = assay: as above
Calu-3 [8] = assay: as above
U2OS [9] = assay: as above
Caco-2 [10] = assay: drug sensitivity score (DSS) for viability; higher = more toxic; extreme values may be limits of the assay
Vero E6 [11] = assay: as above
HepG2 [12] = assay: as above
Calu-3 [13] = assay: as above
U2OS [14] = assay: as above
Caco-2 [15] = assay: relative viability EC50 (midpoint between 100% and the lowest measured viability); higher = less toxic

Row | SMILES | cell viability (Caco-2 [1]; 1 nM) | cell viability (Caco-2 [1]; 10 nM) | cell viability (Caco-2 [1]; 100 nM) | cell viability (Caco-2 [1]; 1000 nM) | cell viability (Caco-2 [1]; 10000 nM) | cell viability (Vero E6 [2]; 1 nM) | cell viability (Vero E6 [2]; 10 nM) | cell viability (Vero E6 [2]; 100 nM) | cell viability (Vero E6 [2]; 1000 nM) | cell viability (Vero E6 [2]; 10000 nM) | cell viability (HepG2 [3]; 1 nM) | cell viability (HepG2 [3]; 10 nM) | cell viability (HepG2 [3]; 100 nM) | cell viability (HepG2 [3]; 1000 nM) | cell viability (HepG2 [3]; 10000 nM) | cell viability (Calu-3 [4]; 1 nM) | cell viability (Calu-3 [4]; 10 nM) | cell viability (Calu-3 [4]; 100 nM) | cell viability (Calu-3 [4]; 1000 nM) | cell viability (Calu-3 [4]; 10000 nM) | cell viability (U2OS [5]; 1 nM) | cell viability (U2OS [5]; 10 nM) | cell viability (U2OS [5]; 100 nM) | cell viability (U2OS [5]; 1000 nM) | cell viability (U2OS [5]; 10000 nM) | relative viability EC50 (Vero E6 [6]) | relative viability EC50 (HepG2 [7]) | relative viability EC50 (Calu-3 [8]) | relative viability EC50 (U2OS [9]) | drug sensitivity score (Caco-2 [10]) | drug sensitivity score (Vero E6 [11]) | drug sensitivity score (HepG2 [12]) | drug sensitivity score (Calu-3 [13]) | drug sensitivity score (U2OS [14]) | relative viability EC50 (Caco-2 [15])
1 | CC(C)Oc1cccc(-n2c(CCc3c[nH]c4ccc(Br)cc34)nc3ccccc3c2=O)c1 | 94.9% | 101% | 101% | 99.1% | 73.3% | 102% | 101% | 100% | 99.7% | 99.3% | 119% | 97.9% | 107% | 85.9% | 92.3% | 95.6% | 93.9% | 92.9% | 112% | 108% | 98.6% | 103% | 98% | 102% | 97.8% | > 10 µM | > 10 µM | > 10 µM | > 10 µM | 1.2 | 0 | 1 | 0 | 0 | 
2 | CCCCc1nn(-c2ccccc2C(F)(F)F)c(=O)n1Cc1ccc(-c2ccccc2S(=O)(=O)NC(=O)c2sccc2C)cc1 | 98.6% | 110% | 102% | 100% | 94.1% | 104% | 106% | 102% | 96.8% | 104% | 98.8% | 115% | 111% | 108% | 102% | 107% | 99.2% | 108% | 106% | 109% |  |  |  |  |  | > 10 µM | > 10 µM | > 10 µM |  | 0 | 0 | 0 | 0 |  | > 10 µM
3 | NC[C@@](O)(c1ccc(Cl)cc1)c1ccc(-c2cn[nH]c2)cc1 | 93.7% | 104% | 104% | 99.9% | 70% | 101% | 104% | 97.5% | 70.5% | 30.7% | 89.6% | 93.2% | 111% | 93.8% | 79.5% | 98.5% | 99.9% | 119% | 144% | 105% | 104% | 103% | 95.5% | 94.6% | 44.4% | 1.16 µM | > 10 µM | > 10 µM | 2.36 µM | 1.3 | 7.4 | 1.4 | 0 | 3.9 | 
4 | O=C(O)c1cnn(-c2nc3cc(OC(F)(F)F)c(Cl)cc3[nH]2)c1 | 104% | 92.7% | 97.6% | 103% | 93.6% | 97.2% | 104% | 100% | 103% | 93.7% | 93.8% | 96.2% | 91.9% | 104% | 88.1% | 89.5% | 106% | 105% | 102% | 98.5% | 101% | 96% | 90.3% | 88.8% | 93.3% | > 10 µM | > 10 µM | > 10 µM | > 10 µM | 0 | 0 | 0 | 0 | 0.5 | > 10 µM
5 | O=S(=O)(c1ccccc1)N(CC(F)(F)F)c1ccc(C(O)(C(F)(F)F)C(F)(F)F)cc1 | 96% | 89.8% | 93.9% | 87.5% | 87.5% | 103% | 102% | 98.1% | 101% | 98.8% | 97.1% | 107% | 94.3% | 87.4% | 78.3% | 107% | 96.5% | 99.2% | 98.2% | 99.7% | 104% | 101% | 102% | 97.7% | 96.5% | > 10 µM | > 10 µM | > 10 µM | > 10 µM | 0.5 | 0 | 1.8 | 0 | 0 | > 10 µM
6 | Nc1nccc2c1ncn2C1C=C(CO)C(O)C1O (stereo not given) [3-deazaneplanocin-A] | 102% | 104% | 99.3% | 88% | 77% | 98.8% | 100% | 89.1% | 56.6% | 36.2% | 105% | 106% | 86.7% | 62.7% | 25.7% | 97.4% | 97.5% | 108% | 85.9% | 89.9% | 105% | 97.4% | 91.8% | 69.3% | 57.8% | 0.47 µM | 0.832 µM | > 10 µM |  | 2 | 9.4 | 8.8 | 1 | 6.3 | > 10 µM
7 | CC(=O)Nc1nc2c(Oc3cc(-c4ccc(C(F)(F)F)cc4)ncn3)cccc2s1 [AMG-517] | 102% | 96.5% | 103% | 97.2% | 94.4% | 101% | 102% | 101% | 102% | 99.4% | 112% | 98.3% | 95.4% | 102% | 91.8% | 104% | 86.1% | 100% | 92.4% | 92.5% |  |  |  |  |  | > 10 µM | > 10 µM | > 10 µM |  | 0 | 0 | 0 | 0 |  | > 10 µM
8 | COc1cc2c(cc1OC)C(c1ccc(N)cc1)=NNC(=O)C2 [CFM-2] | 93.1% | 102% | 98.7% | 95.5% | 98% | 98.7% | 93.8% | 96.6% | 96.1% | 100% | 109% | 97.2% | 104% | 113% | 71% | 95.5% | 100% | 98.3% | 112% | 101% | 97.1% | 98.2% | 95.4% | 95.5% | 87.1% | > 10 µM |  | > 10 µM | > 10 µM | 0 | 0 | 0.8 | 0 | 0 | > 10 µM
9 | CN(C)C(=O)COC(=O)Cc1ccc(OC(=O)c2ccc(NC(=N)N)cc2)cc1 [Camostat mesylate] |  |  |  |  |  | 95.9% | 105% | 88.8% | 102% | 100% | 102% | 96.2% | 97% | 100% | 103% | 99.8% | 97.1% | 104% | 91% | 97% | 104% | 107% | 97.4% | 100% | 99.4% | > 10 µM | > 10 µM | > 10 µM | > 10 µM |  | 0 | 0 | 0 | 0 | 
10 | CCOC(=O)CNC(=O)[C@@H]1CCCN1C(=O)Cc1ccccc1 [DVD-111] | 110% | 102% | 114% | 97% | 107% | 103% | 105% | 98.8% | 104% | 101% | 98.8% | 97.2% | 90.9% | 93.5% | 96.9% | 106% | 98.4% | 106% | 93.7% | 116% |  |  |  |  |  | > 10 µM | > 10 µM | > 10 µM |  | 0 | 0 | 0 | 0 |  | > 10 µM
11 | CCc1cccc(CC)c1NC(=O)c1nn(C)c2c1CCc1cnc(Nc3ccc(C(=O)NC4CCN(C)CC4)cc3OC(F)(F)F)nc1-2 [NMS-P715] |  |  |  |  |  | 104% | 88.8% | 104% | 94.7% | 84.7% | 114% | 103% | 107% | 112% | 48.2% | 91.9% | 97.7% | 98.8% | 105% | 104% | 95.9% | 99.7% | 98.1% | 102% | 98.7% | > 10 µM | 3.99 µM | > 10 µM | > 10 µM |  | 0.7 | 2.1 | 0 | 0 | 
12 | C=CCc1cccc(/C=N/NC(=O)CN2CCN(Cc3ccccc3)CC2)c1O [PAC-1] | 98.2% | 102% | 91.5% | 82.3% | 8% | 103% | 103% | 104% | 95.9% | 48.7% | 104% | 105% | 94% | 87% | 11.5% | 89.6% | 103% | 102% | 101% | 15.8% | 97.5% | 101% | 95.9% | 96.6% | 50.6% | 2.52 µM | 2 µM | 3.25 µM |  | 8 | 3.3 | 7.1 | 4.6 | 3.1 | 1.77 µM
